# Experiments:
# Type in all cases: in vivo
# [1] = system: Abutilon theophrasti (ABUTH); experiment: Post-emergence herbicidal action, greenhouse pot test; conditions: rated visually after about 3 weeks vs untreated controls, 100% = plants have died
# In short: (§1)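 Activity was scored by eye about 3 weeks after treatment against untreated plants, where 100% means dead plants and 0% means no difference. Plants at the one-leaf stage received a foliar spray of WP or EC formulations in water plus 0.5% additive (600 l/ha, up to 20 g/ha). Plants were grown in sandy loam pots in a greenhouse for 2–3 weeks before spraying.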
# [2] = system: Amaranthus retroflexus (AMARE); experiment: as above; conditions: rated visually after about 3 weeks vs untreated controls, 100% = plants have died
# In short: as §1
# Avena fatua (AVEFA) = experiment: as above; conditions: rated visually after about 3 weeks vs untreated controls, 100% = plants have died
# In short: as §1
# Lolium rigidum (LOLRI) = experiment: as above; conditions: dosage 20 g/ha
# In short: as §1
# [3] = system: Pharbitis purpurea (PHBPU); experiment: as above
# In short: as §1
# [4] = system: Polygonum convolvulus (POLCO); experiment: as above
# In short: as §1
# Veronica persica (VERPE) = experiment: as above
# In short: as §1
# Viola tricolor (VIOTR) = experiment: as above
# In short: as §1
# [5] = system: Alopecurus myosuroides (ALOMY); experiment: Post-emergence herbicidal action, greenhouse pot test (also comparative test C); conditions: rated visually after about 3 weeks vs untreated controls, 100% = plants have died
# In short: (§2)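 Visual rating against untreated controls, about 3 weeks after spraying, from 0% (like control) to 100% (plants dead). Weeds were treated at the one-leaf stage, 2–3 weeks after sowing in sandy loam, with aqueous WP/EC spray containing 0.5% additive at 600 l/ha. Doses were ≤20 g/ha, or ≤5 g/ha for comparative test C.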
# [6] = system: Echinochloa crus-galli (ECHCG); experiment: as above; conditions: for Post-emergence action at 1.25 g/ha against ECHCG in %: rated visually after about 3 weeks vs untreated controls, 100% = plants have died
# In short: as §2
# [7] = system: Matricaria inodora (MATIN); experiment: as above
# In short: as §2
# Setaria viridis (SETVI) = experiment: as above; conditions: for Post-emergence action against SETVI: 20 g/ha
# In short: as §2
# [8] = system: Triticum aestivum (TRZAS); experiment: Post-emergence crop plant compatibility, greenhouse pot test; conditions: vs untreated controls
# In short: (§3)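 Compatibility was scored as visual % effect against untreated controls about 3 weeks after spraying green plant parts at the one-leaf stage. Formulations (WP/EC) were applied in aqueous form with 0.5% additive, 600 l/ha, to greenhouse-grown pot plants.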
# Zea mays (ZEAMX) = experiment: as above; conditions: 1.25 g/ha, vs untreated controls
# In short: as §3
# Oryza sativa (ORYSA) = experiment: Post-emergence crop plant compatibility, greenhouse pot test (also comparative test C); conditions: for Post-emergence action against ORYSA (crop plant compatibility): vs untreated controls
# In short: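 Visual damage versus untreated plants (0% = like control, 100% = plants died) was scored about 3 weeks after a post-emergence spray in greenhouse pots. Treatment: one-leaf stage, WP or EC in water at 600 l/ha with 0.5% additive; a/b/c mark different dosages on the same crop.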
SMILES,Post-emergence action at 1.25 g/ha against ABUTH in % [1],Post-emergence action at 5 g/ha against ABUTH in % [1],Post-emergence action at 20 g/ha against ABUTH in % [1],Post-emergence action at 1.25 g/ha against AMARE in % [2],Post-emergence action at 5 g/ha against AMARE in % [2],Post-emergence action at 20 g/ha against AMARE in % [2],Post-emergence action at 20 g/ha against AVEFA in % (Avena fatua (AVEFA)),Post-emergence action against LOLRI in % (Lolium rigidum (LOLRI)),Post-emergence action against PHBPU in % ([3]; dosage 1.25 g/ha),Post-emergence action against PHBPU in % ([3]; dosage 5 g/ha),Post-emergence action against PHBPU in % ([3]; dosage 20 g/ha),Post-emergence action against POLCO in % ([4]; dosage 20 g/ha),Post-emergence action against VERPE (Veronica persica (VERPE); 1.25 g/ha),Post-emergence action against VERPE (Veronica persica (VERPE); 5 g/ha),Post-emergence action against VERPE (Veronica persica (VERPE); 20 g/ha),Post-emergence action against VIOTR (Viola tricolor (VIOTR); 1.25 g/ha),Post-emergence action against VIOTR (Viola tricolor (VIOTR); 5 g/ha),Post-emergence action against VIOTR (Viola tricolor (VIOTR); 20 g/ha),Post-emergence action at 5 g/ha against ALOMY in % [5],Post-emergence action at 20 g/ha against ALOMY in % [5],further results
CCOCCOC(=O)COc1ccccc1Oc1cc(-n2c(=O)cc(C(F)(F)F)n(C)c2=O)c(F)cc1Cl [I.7-2],100%,100%,100%,100%,100%,100%,90%,80%,100%,100%,100%,100%,80%,100%,100%,100%,100%,100%,80%,100%,Post-emergence action against ECHCG in % ([6]; dosage 5 g/ha): 100%; Post-emergence action against ECHCG in % ([6]; dosage 20 g/ha): 100%; Post-emergence action against MATIN in % ([7]; dosage 1.25 g/ha): 80%; Post-emergence action against MATIN in % ([7]; dosage 5 g/ha): 80%; Post-emergence action against MATIN in % ([7]; dosage 20 g/ha): 100%; Post-emergence action against SETVI (Setaria viridis (SETVI)): 100%; Post-emergence action against SETVI in % (Setaria viridis (SETVI); dosage 1.25 g/ha): 100%; Post-emergence action against SETVI in % (Setaria viridis (SETVI); dosage 5 g/ha): 100%; Post-emergence action against TRZAS (crop plant compatibility) ([8]; 1.25 g/ha): 20%; Post-emergence action against TRZAS (crop plant compatibility) ([8]; 5 g/ha): 20%; Post-emergence action against ZEAMX (crop plant compatibility) (Zea mays (ZEAMX)): 0%; Post-emergence action against ORYSA (crop plant compatibility) (Oryza sativa (ORYSA); 1.25 g/ha): 0%
Cn1c(C(F)(F)F)cc(=O)n(-c2cc(Oc3ccccc3OCC(=O)OCc3ccncc3)c(Cl)cc2F)c1=O [I.7-278],100%,100%,100%,100%,100%,100%,80%,80%,100%,100%,100%,100%,100%,100%,100%,90%,100%,100%,90%,100%,Post-emergence action against POLCO in % ([4]; dosage 5 g/ha): 80%; Post-emergence action at 1.25 g/ha against ECHCG in % [6]: 80%; Post-emergence action against ECHCG in % ([6]; dosage 5 g/ha): 100%; Post-emergence action against ECHCG in % ([6]; dosage 20 g/ha): 100%; Post-emergence action against MATIN in % ([7]; dosage 5 g/ha): 80%; Post-emergence action against MATIN in % ([7]; dosage 20 g/ha): 100%; Post-emergence action against SETVI (Setaria viridis (SETVI)): 100%; Post-emergence action against SETVI in % (Setaria viridis (SETVI); dosage 1.25 g/ha): 100%; Post-emergence action against SETVI in % (Setaria viridis (SETVI); dosage 5 g/ha): 100%; Post-emergence action against ZEAMX (crop plant compatibility) (Zea mays (ZEAMX)): 0%; Post-emergence action against ORYSA (crop plant compatibility) (Oryza sativa (ORYSA); 1.25 g/ha): 0%
CCOCCOC(=O)COc1ccccc1Oc1cc(-n2c(=O)cc(C(F)(F)F)n(C)c2=O)c(F)cc1Br [I.8-2],100%,100%,100%,100%,100%,100%,100%,90%,100%,100%,100%,100%,100%,100%,100%,100%,100%,100%,100%,100%,Post-emergence action against POLCO in % ([4]; dosage 5 g/ha): 100%; Post-emergence action at 1.25 g/ha against ALOMY in % [5]: 80%; Post-emergence action against ECHCG in % ([6]; dosage 5 g/ha): 100%; Post-emergence action against ECHCG in % ([6]; dosage 20 g/ha): 100%; Post-emergence action against MATIN in % ([7]; dosage 1.25 g/ha): 100%; Post-emergence action against MATIN in % ([7]; dosage 5 g/ha): 100%; Post-emergence action against MATIN in % ([7]; dosage 20 g/ha): 100%; Post-emergence action against SETVI (Setaria viridis (SETVI)): 100%; Post-emergence action against SETVI in % (Setaria viridis (SETVI); dosage 1.25 g/ha): 100%; Post-emergence action against SETVI in % (Setaria viridis (SETVI); dosage 5 g/ha): 100%; Post-emergence action against ZEAMX (crop plant compatibility) (Zea mays (ZEAMX)): 20%; Post-emergence action against ORYSA (crop plant compatibility) (Oryza sativa (ORYSA); 1.25 g/ha): 0%; Post-emergence action against ORYSA (crop plant compatibility) (Oryza sativa (ORYSA); 5 g/ha): 0%
Cn1c(C(F)(F)F)cc(=O)n(-c2cc(Oc3ccccc3OCC(=O)OCc3cccnn3)c(Br)cc2F)c1=O [I.8-291],100%,100%,100%,100%,100%,100%,90%,80%,100%,100%,100%,100%,100%,100%,100%,100%,100%,100%,90%,100%,Post-emergence action against POLCO in % ([4]; dosage 5 g/ha): 100%; Post-emergence action at 1.25 g/ha against ALOMY in % [5]: 80%; Post-emergence action at 1.25 g/ha against ECHCG in % [6]: 100%; Post-emergence action against ECHCG in % ([6]; dosage 5 g/ha): 100%; Post-emergence action against ECHCG in % ([6]; dosage 20 g/ha): 100%; Post-emergence action against MATIN in % ([7]; dosage 20 g/ha): 100%; Post-emergence action against SETVI (Setaria viridis (SETVI)): 100%; Post-emergence action against SETVI in % (Setaria viridis (SETVI); dosage 1.25 g/ha): 100%; Post-emergence action against SETVI in % (Setaria viridis (SETVI); dosage 5 g/ha): 100%; Post-emergence action against TRZAS (crop plant compatibility) ([8]; 1.25 g/ha): 10%; Post-emergence action against TRZAS (crop plant compatibility) ([8]; 5 g/ha): 20%; Post-emergence action against ORYSA (crop plant compatibility) (Oryza sativa (ORYSA); 1.25 g/ha): 0%; Post-emergence action against ORYSA (crop plant compatibility) (Oryza sativa (ORYSA); 5 g/ha): 20%
Cn1c(C(F)(F)F)cc(=O)n(-c2cc(Oc3ccccc3OCC(=O)OCc3cccnn3)c(C#N)cc2F)c1=O [I.9-291],100%,100%,100%,100%,100%,100%,80%,90%,100%,100%,100%,100%,100%,100%,100%,100%,100%,100%,90%,100%,"Post-emergence action at 5 g/ha against AVEFA in % (Avena fatua (AVEFA); 5 g/ha): 80%; Post-emergence action against POLCO in % ([4]; dosage 1.25 g/ha): 80%; Post-emergence action against POLCO in % ([4]; dosage 5 g/ha): 90%; Post-emergence action at 1.25 g/ha against ALOMY in % [5]: 80%; Post-emergence action against ECHCG in % ([6]; dosage 5 g/ha): 90%; Post-emergence action against ECHCG in % ([6]; dosage 20 g/ha): 100%; Post-emergence action against MATIN in % ([7]; dosage 5 g/ha): 80%; Post-emergence action against MATIN in % ([7]; dosage 20 g/ha): 100%; Post-emergence action against SETVI (Setaria viridis (SETVI)): 100%; Post-emergence action against SETVI in % (Setaria viridis (SETVI); dosage 1.25 g/ha): 100%; Post-emergence action against SETVI in % (Setaria viridis (SETVI); dosage 5 g/ha): 100%; Post-emergence action against TRZAS (crop plant compatibility) ([8]; 1.25 g/ha): 20%; Post-emergence action against TRZAS (crop plant compatibility) ([8]; 5 g/ha): 20%; Post-emergence action against ORYSA (crop plant compatibility) (Oryza sativa (ORYSA); 1.25 g/ha): 0%; Post-emergence action against ORYSA (crop plant compatibility) (Oryza sativa (ORYSA); 5 g/ha): 0%; Post-emergence action against ORYSA in % (Oryza sativa (ORYSA); 20 g/ha, crop plant compatibility): 20%"

# Source: patent US20240025862A1, “SUBSTITUTED N-PHENYLURACILS AND SALTS THEREOF, AND USE THEREOF AS HERBICIDAL ACTIVE SUBSTANCES” (Bayer Aktiengesellschaft, priority 2020, published 2024)
